pKd: −log10 of the molar value. Like-named read-outs stand apart in the source and are kept apart here. Where a SMILES comes first, the peptide text is derived from it. Bridges are numbered along the chain shown (N, C = ends). [ ]: non-standard residue; d: D form. The star is where a group is joined. X1 = CC[C@H](C)CCCCC(=O)*; dDab = NCC[C@@H](N)C(=O)O; Dab = NCC[C@H](N)C(=O)O
Legend:
[1] = system: Klebsiella pneumoniae ATCC- BAA 2146; settings: Klebsiella pneumoniae ATCC- BAA 2146
[2] = system: Staphylococcus aureus ATCC 25923; settings: Staphylococcus aureus ATCC 25923
[3] = system: Escherichia coli ATCC 35218; settings: Escherichia coli ATCC 35218
[4] = system: Vibrio parahaemolyticus ATCC17802
[5] = system: Klebsiella pneumoniae ATCC 29665; settings: Klebsiella pneumoniae ATCC 29665
[6] = system: Enterococcus faecalis ATCC 51299; settings: Enterococcus faecalis ATCC 51299
[7] = system: Pseudomonas aeruginosa ATCC 27853; settings: Pseudomonas aeruginosa ATCC 27853
[8] = system: Escherichia coli ATCC 25922; settings: Escherichia coli ATCC 25922
[9] = system: Bacillus subtilis ATCC 6633; settings: Bacillus subtilis ATCC 6633
[10] = system: human embryonic kidney cell line (HEK293 ATCC CRL-1573); format: cell-based
Method: (§1) 3-(4,5-dimethylthiazol-2-yl)-2,5-diphenyltetrazolium bromide (MTT) assay was employed to examine the cytotoxicity against human leukemic monocyte cell line (THP-1 ATCC TIB-202) and human embryonic kidney cell line (HEK293 ATCC CRL-1573) as explained by [Kaur et al. (2017)]. Toxicity of both compounds was compared with polymyxin B and colistin at concentrations ranging from 62.5 to1000 μg/ml.

[11] = system: human leukemic monocyte cell line (THP-1 ATCC TIB-202); format: cell-based
Method: as §1

[12] = system: Klebsiella pneumoniae ATCC 700603; settings: Klebsiella pneumoniae ATCC 700603
[13] = system: Vibrio cholerae MTCC 3906
[14] = system: Acinetobacter baumannii ATCC 19606; settings: Acinetobacter baumannii ATCC 19606; Ca-MHB, 37°C, 20–24 h
[15] = system: Klebsiella pneumoniae ATCC BAA1706; settings: Klebsiella pneumoniae ATCC BAA1706
[16] = system: LPS (E. coli strain 055:B5 origin); format: binding; settings: read-out: Dissociation constant (Kd)

CC[C@H](C)CCCCC(=O)N[C@@H](CCN)C(=O)N[C@H](C(=O)N[C@H](CCN)C(=O)N[C@H]1CCNC(=O)[C@H]([C@@H](C)O)NC(=O)[C@H](CCN)NC(=O)[C@H](CCN)NC(=O)[C@H]([C@@H](C)O)NC(=O)[C@@H](CC(C)C)NC(=O)[C@H](CCN)NC1=O)[C@@H](C)O [P2, polymyxin A1] (X1-[Dab]T[dDab][Dab][Dab][dL]T[Dab][Dab]T; lactam 4-C)
1 µg/mL: MIC (K. Pneumoniae GMCH10; GMCH10) | MIC [1] | MIC (E. coli 13425; 13425) | MIC (A. baumannii AB1; AB1) | MIC [4] | MIC [5] | MIC [7] | MIC [8] | MIC (E. coli 7210; 7210) | MIC (E. coli 7932; 7932) | MIC (P. aeruginosa PA4; PA4) | MIC (K. Pneumoniae GMCH11; GMCH11) | MIC [12] | MIC (A. baumannii GMCH05; GMCH05) | MIC (P. aeruginosa GMCH06; GMCH06) | MIC (K. Pneumoniae GMCH12; GMCH12) | MIC (K. Pneumoniae 827; 827) | MIC (A. baumannii AB2; AB2) | MIC [14] | MIC (K. Pneumoniae B8; B8) | MIC (E. coli 9062; 9062) | MIC (A. baumannii GMCH 14; GMCH 14) | MIC [15]
0.5 µg/mL: MIC [3] | MIC (E. coli 14084; 14084) | MIC (K. Pneumoniae 1573; 1573) | MIC (K. Pneumoniae GMCH13; GMCH13) | MIC (K. Pneumoniae GMCH04; GMCH04) | MIC (K. Pneumoniae GMCH 16; GMCH 16) | MIC (A. baumannii GMCH18; GMCH18) | MIC (E. coli 7534; 7534) | MIC (E. coli 14504; 14504) | MIC (E. coli 3185; 3185) | MIC (E. coli 14363; 14363)
500 µg/mL: IC50 [11]
2 µg/mL: MIC (P. aeruginosa PA1; PA1) | MIC (P. aeruginosa PA3; PA3) | MIC (P. aeruginosa PA6; PA6) | MIC (P. aeruginosa PA5; PA5) | MIC (P. aeruginosa PA2; PA2) | MIC (K. Pneumoniae 1428; 1428)
>16 µg/mL: MIC [2] | MIC [6]
8 µg/mL: MIC [9] | MIC [13]
highest toxicity among four compounds: toxicity ranking against HEK cells [10]

polymyxin E (colistin) [PE, reference compound]
1 µg/mL: MIC (K. Pneumoniae GMCH10; K. Pneumoniae GMCH10, MDR clinical isolate) | MIC (E. coli 13425; E. coli 13425, MDR clinical isolate) | MIC (A. baumannii AB1; A. baumannii AB1, MDR clinical isolate) | MIC [4] | MIC (K. Pneumoniae 1573; K. Pneumoniae 1573, MDR clinical isolate) | MIC (K. Pneumoniae GMCH13; K. Pneumoniae GMCH13, MDR clinical isolate) | MIC [7] | MIC [8] | MIC (E. coli 7210; E. coli 7210, MDR clinical isolate) | MIC (E. coli 7932; E. coli 7932, MDR clinical isolate) | MIC (P. aeruginosa PA4; P. aeruginosa PA4, MDR clinical isolate) | MIC (K. Pneumoniae GMCH 16; K. Pneumoniae GMCH 16, MDR clinical isolate) | MIC (A. baumannii GMCH18; A. baumannii GMCH18, MDR clinical isolate) | MIC [12] | MIC (A. baumannii GMCH05; A. baumannii GMCH05, MDR clinical isolate) | MIC (P. aeruginosa GMCH06; P. aeruginosa GMCH06, MDR clinical isolate) | MIC (K. Pneumoniae GMCH12; K. Pneumoniae GMCH12, MDR clinical isolate) | MIC (K. Pneumoniae 827; K. Pneumoniae 827, MDR clinical isolate) | MIC (A. baumannii AB2; A. baumannii AB2, MDR clinical isolate) | MIC [14] | MIC (E. coli 14504; E. coli 14504, MDR clinical isolate) | MIC (K. Pneumoniae B8; K. Pneumoniae B8, MDR clinical isolate) | MIC (E. coli 9062; E. coli 9062, MDR clinical isolate) | MIC (A. baumannii GMCH 14; A. baumannii GMCH 14, MDR clinical isolate)
0.5 µg/mL: MIC [1] | MIC [3] | MIC [5] | MIC (E. coli 14084; E. coli 14084, MDR clinical isolate) | MIC (K. Pneumoniae GMCH04; K. Pneumoniae GMCH04, MDR clinical isolate) | MIC (K. Pneumoniae GMCH11; K. Pneumoniae GMCH11, MDR clinical isolate) | MIC (E. coli 7534; E. coli 7534, MDR clinical isolate) | MIC (E. coli 3185; E. coli 3185, MDR clinical isolate) | MIC [15] | MIC (E. coli 14363; E. coli 14363, MDR clinical isolate)
5.15: pKd [16]
16 µg/mL: MIC [9]
> 250 µg/mL: IC50 ([11]; THP-1 cells, MTT, 62.5 to 1000 μg/ml)
>16 µg/mL: MIC [2] | MIC [6] | MIC [13]
2 µg/mL: MIC (P. aeruginosa PA1; P. aeruginosa PA1, MDR clinical isolate) | MIC (P. aeruginosa PA3; P. aeruginosa PA3, MDR clinical isolate) | MIC (P. aeruginosa PA6; P. aeruginosa PA6, MDR clinical isolate) | MIC (P. aeruginosa PA5; P. aeruginosa PA5, MDR clinical isolate) | MIC (P. aeruginosa PA2; P. aeruginosa PA2, MDR clinical isolate) | MIC (K. Pneumoniae 1428; K. Pneumoniae 1428, MDR clinical isolate)
above 1000 μg/ml: IC50 ([10]; HEK293 cells, MTT, 62.5 to 1000 μg/ml)
